Results: US20090208620A1, “Alimentary Compositions and Methods For Metabolic Modulation” (VDF FUTURECEUTICALS, INC., priority 2003, published 2009)
Several values for one entry are separate records, joined by “and”; a condition that tells them apart may be missing. Equal values may be shown once.

Tests used:
[1] = tested on: rat epitrochlearis muscle; test: Glucose uptake in rat epitrochlearis muscle; assay type: cell-based; set-up: unit not given here; details: 60 minute incubation at 37 C, 10 minute transport at 30 C
Procedure: Glucose uptake in rat epitrochlearis muscle was determined following a protocol substantially as described by Brozinick, J. T., and Birnbaum, M. J. (1998) J. Biol. Chem. 273(24), […]. Results are listed in Tables 5 and 6, wherein data of Table 5 were obtained for 60 minute incubations (at 37 C), 10 minute transport at (30 C) and data of Table 6 were obtained for 60 minute incubations (at 37 C), 10 minute transport at (30 C) of the compounds as indicated (K is kinetin, AG is N2-acetylguanine).

GLUT-4 = test: Western immunoblot for GLUT-4 protein level in C2C12 cells; assay type: cell-based, mouse
Procedure: (§1) The levels of Glut-4, activated AMPK and activated Akt were measured in mouse muscle cells C2C12 (from ATTC) and in primary culture of human skeletal muscle cells (Clonetics, Inc.) using Western immunoblotting. C2C12 cells were plated at 1.5×1-exp5 cells per mL/well (12-well plate) in standard cell culture medium (DMEM supplemented with 10% fetal bovine serum (FBS), 25 mM glucose, 20 mM Hepes, 4 mM glutamine and 2 mM sodium pyruvate. 48 hrs after the plating, medium was changed to differentiation medium (DMEM supplemented with 5 mM of glucose and 0.5% of FBS) for next 3-4 days to stimulate the formation of myotubes. Three hours before the treatment with selected agents, cells were washed with PBS and transferred to PBS supplemented with 5 mM of glucose.
Analysis of C2C12 cells for the level of activated AMPK, Akt and the level of GLUT-4 was performed in the same experimental system. The cells were treated for 30 minutes at 37° C. After the treatment, the cells were washed with ice-cold PBS and lysed with 80 μl of lysis buffer/well (M-PER buffer from Pierce supplemented with protease and phosphatase inhibitor mix (Calbiochem) for 10 minutes on ice. Next, the plates were transferred to −20° C. to improve the lysis of the cells. Next cells were sonicated for 5 minutes and lysate was transferred to Eppendorf tubes and centrifuged at 14,000 rpm for 10 minutes. Supernatants were collected in fresh Eppendorf tubes and kept on ice to measure the amount of total proteins. 3 μl of each lysate was used to measure the protein concentration using standard Bradford method (Biorad). Subsequently, 20 μg per sample of sample protein was used for Western analysis using NuPage 10% Bis/Tris gels (Invitrogen). After exposure of membranes to primary and secondary antibodies AMPK, AKT or Glut-4 was detected using ECL-Plus (Amersham) following producer's instruction. Chemilumiscent signals were detected by using ChemiDoc system from Biorad. Intensity of detected signals were analyzed and measured using Quantity One software (Biorad). Alternatively, the level of phosphorylated AMPK was detected using ECL kit from Amersham and short exposure to Kodak films.
Experimental setup: Cell Culture was followed by treatment with selected contemplated compounds, which was followed by cell lysis and western blot analysis for AMPK, Akt, GLUT4, total AMPK, and total Akt. Signals were acquired accordingly. Primary antibodies used in these studies are the following: Anti-phospho-AMPK (Thr172), mouse, rabbit IgG, from Cell Signaling, #2531; Anti-phospho-Akt (Ser473), mouse, rabbit IgG, Cell Signaling, #9271; Anti-Glut-4, mouse, rabbit IgG, Calbiochem, #400064; Anti-AMPK (total), mouse, rabbit IgG, Cell Signaling, #2532; Anti-Akt (total), mouse, rabbit IgG, Cell Signaling, #9272.
The effects of kinetin, N^2-Acetyl-Guanosine and N^2-Acetyl-Guanine on GLUT-4 protein level in C2C12 cells were investigated following the same experimental design as described for AMPK and AKT. Anti-Glut-4 antibody used in this study was from Calbiochem. […] Table 3 refers to multiple independent experiments where multiple identical concentrations for the same reagents are indicated.

muscle cells = test: Total glucose uptake in vitro with fluorescent glucose analog; assay type: cell-based; details: for AVERAGE (N = 3) fluorescence of fluorescent glucose in the cells / FOLD CHANGE IN TOTAL GLUCOSE UPTAKE (OVER CONTROL): 30 minutes at 37 C
Procedure: Total glucose uptake was measured using fluorescent glucose analog from Molecular Probes. Briefly, muscle cells were treated with kinetin, N^2-Acetyl-Guanosine and N^2-Acetyl-Guanine for 30 minutes at 37 C first and subsequently, these cells were exposed to 500 μM of fluorescent glucose analog for 5 minutes at room temperature. Next, cells were washed twice with cold Krebs-Hepes buffered solution and fixed in 70% ethanol in water. Fluorescence of fluorescent glucose in the cells was measured using fluorescent plate reader at 480/530 nm (excitation/emission). […] Table 4 refers to multiple independent experiments where multiple identical concentrations for the same reagents are indicated.

activated AMPK = test: Western immunoblot for activated (phospho-Thr172) AMPK in muscle cells; assay type: cell-based, mouse; details: for FOLD AMPK ACTIVATION (OVER CONTROL): cells treated 30 minutes at 37° C
Procedure: as §1
(§2) Human skeletal muscle cells (HSKM) were cultured in SKBM-2 mediums provided by Clonetics. 48 hrs after cell plating, medium was changed to SKBM medium to stimulate differentiation of the cells to myotubes. When differentiated, the myotubes were transferred to PBS supplemented with 5 mM glucose for three hrs before the treatment.
(§3) Analysis of C2C12 cells for the level of activated AMPK, Akt and the level of GLUT-4 was performed in the same experimental system. The cells were treated for 30 minutes at 37° C. […] Subsequently, 20 μg per sample of sample protein was used for Western analysis using NuPage 10% Bis/Tris gels (Invitrogen). After exposure of membranes to primary and secondary antibodies AMPK, AKT or Glut-4 was detected using ECL-Plus (Amersham) following producer's instruction. Chemilumiscent signals were detected by using ChemiDoc system from Biorad. Intensity of detected signals were analyzed and measured using Quantity One software (Biorad). Alternatively, the level of phosphorylated AMPK was detected using ECL kit from Amersham and short exposure to Kodak films.
(§4) Experimental setup: Cell Culture was followed by treatment with selected contemplated compounds, which was followed by cell lysis and western blot analysis for AMPK, Akt, GLUT4, total AMPK, and total Akt. Signals were acquired accordingly.

activated Akt = test: Western immunoblot for activated (phospho-Ser473) Akt in muscle cells; assay type: cell-based, mouse; details: for FOLD AKT ACTIVATION (OVER CONTROL): cells treated 30 minutes at 37° C
Procedure: as §1, §2, §3, §4

[2] = concentration 0.15 (unit not given)
[3] = concentration 0.3 (unit not given)
[4] = concentration 1.5 (unit not given)
[5] = concentration 3.75 (unit not given)
[6] = concentration 7.5 (unit not given)

With `CC(=O)Nc1nc2nc[nH]c2c(=O)[nH]1` [N^2-Acetyl-Guanine, N2-acetylguanine] as the compound, how does the “Glucose uptake, Mean” value ([1]; 0.1 uM) read?
The value was 1.12.

What about the “Glucose uptake, Mean” value ([1]; 0.4 uM) of the same compound?
Its value is 1.43.

And the “effect on GLUT-4 protein level (in words)” value (GLUT-4)?
The value was “potently increase GLUT-4 protein level”.

And the “FOLD CHANGE IN GLUT-4 LEVEL (OVER CONTROL)” value (“FOLD CHANGE IN GLUT-4 LEVEL” for short) (GLUT-4; 0.3 microM)?
The value was 3.94 fold.

What about the “FOLD CHANGE IN GLUT-4 LEVEL” value (GLUT-4; 1.5 microM) of the same compound?
The value was 3.84 fold.

And the “FOLD CHANGE IN GLUT-4 LEVEL” value (GLUT-4; 7.5 microM)?
Its value is 3.24 fold.

What about the “FOLD CHANGE IN GLUT-4 LEVEL” value (GLUT-4; 37.5 microM) of the same compound?
The value was 2.80 fold.

What about the “effect on glucose uptake in muscle cells in vitro (in words)” value (muscle cells) of the same compound?
The value was “potently enhance glucose uptake in muscle cells in vitro”.

What about the “AVERAGE (N = 3) fluorescence of fluorescent glucose in the cells” value (from here on “AVERAGE (N = 3) fluorescence”) (muscle cells; [2]) of the same compound?
The value was 86.4 +/− 2.3.

What about the “FOLD CHANGE IN TOTAL GLUCOSE UPTAKE (OVER CONTROL)” value (shortened to “FOLD CHANGE IN TOTAL GLUCOSE UPTAKE”) (muscle cells; [2]) of the same compound?
Its value is 1.85 fold.

And the “AVERAGE (N = 3) fluorescence” value (muscle cells; [3])?
The value was 54.5 +/− 1.7.

What about the “FOLD CHANGE IN TOTAL GLUCOSE UPTAKE” value (muscle cells; [3]) of the same compound?
Its value is 2.68 fold.

What about the “AVERAGE (N = 3) fluorescence” value (muscle cells; [4]) of the same compound?
Its value is 55.2 +/− 0.8.

What about the “FOLD CHANGE IN TOTAL GLUCOSE UPTAKE” value (muscle cells; [4]) of the same compound?
The value was 2.71 fold.

And the “AVERAGE (N = 3) fluorescence” value (muscle cells; [5])?
Its value is 115.9 +/− 3.7.

What about the “FOLD CHANGE IN TOTAL GLUCOSE UPTAKE” value (muscle cells; [5]) of the same compound?
The value was 2.48 fold.

And the “AVERAGE (N = 3) fluorescence” value (muscle cells; [6])?
The value was 59.6 +/− 0.4.

What about the “FOLD CHANGE IN TOTAL GLUCOSE UPTAKE” value (muscle cells; [6]) of the same compound?
The value was 2.93 fold.

What about the “FOLD AMPK ACTIVATION (OVER CONTROL)” value (activated AMPK; 0.3 microM) of the same compound?
Its value is 5.42 fold.

And the “FOLD AMPK ACTIVATION (OVER CONTROL)” value (activated AMPK; 1.5 microM)?
The value was 5.85 fold.

And the “FOLD AMPK ACTIVATION (OVER CONTROL)” value (activated AMPK; 7.5 microM)?
The value was 6.00 fold.

What about the “FOLD AMPK ACTIVATION (OVER CONTROL)” value (activated AMPK; 37.5 microM) of the same compound?
The value was 6.51 fold.

And the “effect on AMPK activity (in words)” value (activated AMPK; no concentration stated)?
Its value is “potent activators of AMPK”.

And the “FOLD AKT ACTIVATION (OVER CONTROL)” value (activated Akt; 0.3 microM)?
Its value is 3.50 fold and 2.44 fold.

What about the “FOLD AKT ACTIVATION (OVER CONTROL)” value (activated Akt; 7.5 microM) of the same compound?
The value was 2.58 fold and 1.95 fold.

And the “effect on Akt activity (in words)” value (activated Akt; no concentration stated)?
The value was “potent activators of AMPK as well as Akt”.
